# Test results as given in patent publication US10974081B2, “Treatment and prevention of sleep disorders” (Purdue Pharma L.P., priority 2016, dated 2021).
# Read-outs that look alike come from different tables or passages of the source.
# Assays:
# rats = test: EEG/EMG sleep-wake analysis, single administration compared to zolpidem; type: in vivo, rat
# [1] = Plasma concentration (pharmacokinetics) after single oral dose in humans; type: in vivo, human; conditions: for half-life / Tmax / AUC(0-t) / Cmax / AUC(0-inf): male, human, plasma; for half-life / Tmax: po; for AUC(0-inf): read-out: AUCinf Mean
# Description: The plasma concentration of Compound (1D) was evaluated in humans for up to 36 hours after administration of a single oral dose of 3, 10, or 30 mg of Compound (1D) in the form of a methyl cellulose suspension. Four healthy male subjects were administered each dose.
# FIG. 19A provides a plot of the human plasma concentration of Compound (1D) on a linear scale versus linear time in hours at each dose: 3, 10, and 30 mg. FIG. 19B provides the same results in a plot of human plasma concentration of Compound (1D) on a logarithmic scale versus linear time at each dose. The target plasma exposure indicated in FIG. 19A relates to the effective dose in 80% of subjects from rat modeling results.
# rat plasma = test: Rat protein binding, equilibrium dialysis of rat plasma; type: in vitro ADME; conditions: 24 hours dialysis at 37° C.
# Description: The extent of in vitro binding of Compound (1F), […], or W-212393 to rat plasma was determined as an assessment of the protein binding of each compound, i.e., compound unavailable for modulating receptor activity. Plasma from rats containing a tested compound in one chamber of a dialysis cell was dialyzed with PBS in the other chamber; thereafter, the supernatant from each chamber was analyzed for the concentration of the tested compound present. A cell suitable for equilibrium dialysis was used in the determinations. The dialysis membrane described in Example 10 (with molecular mass cutoff of 12,000-14,000 Da) separated the dialysis cell into two chambers. The membrane was soaked with purified water and PBS before being placed into the dialysis cell. 4 μL of an iv formulation of each tested compound was added to 996 μL of rat plasma, the latter obtained using syringe containing heparin and EDTA by the procedure described in Example 10, to provide a plasma sample with a tested compound concentration of 2 μg/mL. 450 μL of the plasma sample was applied to one chamber (plasma chamber) of the dialysis cell. A 450 μL aliquot of PBS was applied to the other chamber (PBS chamber) of the dialysis cell. The dialysis study was conducted in duplicate for each tested compound. After 24 hours of equilibrium dialysis at 37° C., 30 μL of liquid from the plasma chamber of the dialysis cell was collected and to this was added 270 μL of fresh PBS (this combination was designated Sample “1”). Then, 270 μL of liquid from the PBS chamber of the dialysis cell was collected and to this was added 30 μL of control rat plasma (i.e., rat plasma never exposed to any test compound, this combination was designated Sample “2”). Thereafter, each sample was mixed well and stored in a freezer until the next analysis step. After the protein precipitated in the freezer, each supernatant thusly obtained was analyzed by LC-MS-MS for unbound test compound. […] Thereafter, the percentage of rat protein-bound (“RPB”) tested compound was calculated as follows: […]
smiles,measurement,setting,value
O=C(O)c1nc2ccccc2n([C@H]2C[C@H]3CCC[C@@H](C2)N3C2CC3CCCC(C3)C2)c1=O (stereo partly shown) [Compound (1D)],effect on percentage of time spent in REM sleep,rats; 10 mg/kg oral (FIG. 13B),no significant effects
same,percentage of time spent in wakefulness versus vehicle,"rats; 10 mg/kg oral, 1 hour blocks at 2, 5, and 8 hours after dosing (FIG. 13A)",lower
same,"percentage amounts of wakefulness, REM sleep, and NREM sleep","rats; 10 mg/kg oral, 3 hour blocks (FIGS. 14A-14C)",no significant changes
same,percentage of time spent in NREM sleep versus vehicle,"rats; 10 mg/kg oral, at 2, 5, and 8 hours after dosing (FIG. 13C)",higher
same,percentage of time spent in wakefulness versus vehicle,"rats; 10 mg/kg oral, at 6 and 15 hours after dosing (FIG. 13A)",significantly increased
same,percentage of time spent in NREM sleep versus vehicle,"rats; 10 mg/kg oral, at 6 and 15 hours after dosing (FIG. 13C)",significantly decreased
same,effect on percentage of time spent in REM sleep,"rats; 100 mg/kg oral (FIG. 15B, 16B)",no significant effects
same,percentage amount of NREM sleep versus vehicle,"rats; 100 mg/kg oral, 3 hour blocks 0-3, 3-6, 6-9, and 15-18 hours (FIG. 16C)",significant decreases
same,percentage amount of wakefulness versus vehicle,"rats; 100 mg/kg oral, 3 hour blocks 0-3, 3-6, and 15-18 hours (FIG. 16A)",significant increases
same,percentage of time spent in NREM sleep versus vehicle,"rats; 100 mg/kg oral, at 3, 4, 5, 7, 17 and 18 hours after dosing (FIG. 15C)",significantly increased
same,percentage of time spent in wakefulness versus vehicle,"rats; 100 mg/kg oral, at 3, 5 and 17 hours after dosing (FIG. 15A)",significantly decreased
same,overall sleep effect,rats; single 10 mg/kg oral dose,minor sleep-enhancing effects
same,overall sleep effect,rats; single 100 mg/kg oral dose,significant sleep-enhancing effects
same,AUCinf Maximum,[1]; 3 mg single oral dose,176 ng·h/mL
same,AUCinf Minimum,[1]; 3 mg single oral dose,144 ng·h/mL
same,AUCt Maximum,[1]; 3 mg single oral dose,168 ng·h/mL
same,AUCt Minimum,[1]; 3 mg single oral dose,135 ng·h/mL
same,Cmax Maximum,[1]; 3 mg single oral dose,34 ng/mL
same,Cmax Minimum,[1]; 3 mg single oral dose,23 ng/mL
same,t1/2 Minimum,[1]; 3 mg single oral dose,2.1 h
same,tmax Maximum,[1]; 3 mg single oral dose,2.0 h
same,AUCinf Maximum,[1]; 10 mg single oral dose,557 ng·h/mL
same,AUCinf Minimum,[1]; 10 mg single oral dose,320 ng·h/mL
same,AUCt Maximum,[1]; 10 mg single oral dose,550 ng·h/mL
same,AUCt Minimum,[1]; 10 mg single oral dose,300 ng·h/mL
same,Cmax Maximum,[1]; 10 mg single oral dose,98 ng/mL
same,Cmax Minimum,[1]; 10 mg single oral dose,56 ng/mL
same,t1/2 Maximum,[1]; 10 mg single oral dose,3.0 h
same,t1/2 Minimum,[1]; 10 mg single oral dose,2.4 h
same,tmax Maximum,[1]; 10 mg single oral dose,2.0 h
same,tmax Minimum,[1]; 10 mg single oral dose,1.0 h
same,AUCinf Maximum,[1]; 30 mg single oral dose,714 ng·h/mL
same,AUCinf Minimum,[1]; 30 mg single oral dose,398 ng·h/mL
same,AUCt Maximum,[1]; 30 mg single oral dose,708 ng·h/mL
same,AUCt Minimum,[1]; 30 mg single oral dose,388 ng·h/mL
same,Cmax Maximum,[1]; 30 mg single oral dose,106 ng/mL
same,Cmax Minimum,[1]; 30 mg single oral dose,69 ng/mL
same,t1/2 Maximum,[1]; 30 mg single oral dose,3.2 h
same,tmax Maximum,[1]; 30 mg single oral dose,3.0 h
same,tmax Minimum,[1]; 30 mg single oral dose,1.0 h
same,gastrointestinal absorption,[1]; across the three doses,rapid gastrointestinal absorption
same,half-life,"[1]; 3 mg, 3 mg single oral dose, read-out: t1/2 Mean (converted)",138 min
same,Tmax,"[1]; 3 mg, 3 mg single oral dose, read-out: tmax Mean",1.6 h
same,Tmax,"[1]; 3 mg, 3 mg single oral dose, read-out: tmax Median",1.5 h
same,half-life,"[1]; 10 mg, 10 mg single oral dose, read-out: t1/2 Mean (converted)",156 min
same,Tmax,"[1]; 10 mg, 10 mg single oral dose, read-out: tmax Mean",1.5 h
same,half-life,"[1]; 30 mg, 30 mg single oral dose, read-out: t1/2 Mean (converted)",168 min
same,Tmax,"[1]; 30 mg, 30 mg single oral dose, read-out: tmax Mean",1.8 h
same,Tmax,"[1]; 30 mg, 30 mg single oral dose, read-out: tmax Median",1.5 h
same,half-life,"[1]; 30 mg, 3, 10 and 30 mg single oral doses, read-out: t1/2, minimum to maximum across the three doses",126 to 192 min
same,Tmax,"[1]; 30 mg, 3, 10 and 30 mg single oral doses, read-out: tmax, minimum to maximum across the three doses",1 to 3 h
same,AUC(0-t),[1]; 3 mg single oral dose,154 ng·h/mL
same,Cmax,[1]; 3 mg single oral dose,30 ng/mL
same,AUC(0-inf),[1]; 3 mg single oral dose,161 ng·h/mL
same,AUC(0-t),[1]; 10 mg single oral dose,438 ng·h/mL
same,Cmax,[1]; 10 mg single oral dose,77 ng/mL
same,AUC(0-inf),[1]; 10 mg single oral dose,447 ng·h/mL
same,AUC(0-t),[1]; 30 mg single oral dose,505 ng·h/mL
same,Cmax,[1]; 30 mg single oral dose,83 ng/mL
same,AUC(0-inf),[1]; 30 mg single oral dose,512 ng·h/mL
CNC(=O)Cn1c(=O)n(C2CCN([C@@H]3Cc4cccc5cccc3c45)CC2)c2ccccc21 [Compound W-212393],stability in rat plasma during the determination,rat plasma,unstable in plasma
